Literature values, collected in patent US20100048598A1, “TOPICAL COMPOSITIONS COMPRISING 5-ALPHA REDUCTASE INHIBITORS” (priority 2008, published 2010).

How the values were obtained:
DHT = details: daily oral 1 mg dose
androgenic alopecia = details: 1 mg/day, treated men
type II 5α-reductase = biological target: T1, type II 5α-reductase (Homo sapiens, UniProt P31213); details: relative to finasteride
T1 sequence (P31213 1-254): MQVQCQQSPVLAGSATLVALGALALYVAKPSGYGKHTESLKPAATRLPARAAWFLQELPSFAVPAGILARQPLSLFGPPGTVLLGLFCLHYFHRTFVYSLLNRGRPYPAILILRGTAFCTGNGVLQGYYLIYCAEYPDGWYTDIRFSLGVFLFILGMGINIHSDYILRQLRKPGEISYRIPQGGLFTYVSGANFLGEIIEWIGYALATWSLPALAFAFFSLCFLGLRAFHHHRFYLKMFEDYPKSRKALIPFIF

type I 5α-reductase = biological target: T2, type I 5α-reductase (Homo sapiens, UniProt P18405); details: relative to finasteride
T2 sequence (P18405 1-259): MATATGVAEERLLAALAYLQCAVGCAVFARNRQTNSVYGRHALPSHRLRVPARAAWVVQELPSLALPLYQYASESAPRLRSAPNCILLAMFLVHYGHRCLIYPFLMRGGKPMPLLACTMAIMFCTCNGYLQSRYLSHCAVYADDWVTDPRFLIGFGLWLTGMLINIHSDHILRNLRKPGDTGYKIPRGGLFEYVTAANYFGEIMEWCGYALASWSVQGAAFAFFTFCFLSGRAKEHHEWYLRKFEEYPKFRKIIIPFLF

[1] = orally administered

## CC(C)(C)NC(=O)[C@H]1CC[C@H]2[C@@H]3CC[C@H]4NC(=O)C=C[C@]4(C)[C@H]3CC[C@]12C [Finasteride]
DHT
  scalp DHT reduction: 64%
  serum DHT reduction: 68%
Androgenic alopecia
  progression of hair loss and hair growth compared with control group: slowed the progression of hair loss and increased hair growth

## C[C@]12C=CC(=O)N[C@@H]1CC[C@@H]1[C@@H]2CC[C@]2(C)[C@@H](C(=O)Nc3cc(C(F)(F)F)ccc3C(F)(F)F)CC[C@@H]12 [Dutasteride, (5α,17β)-N-{2,5-bis(trifluoromethyl)phenyl}-3-oxo-4-azaandrost-1-ene-17-carboxamide]
Type II 5α-reductase
  potency at inhibiting type II 5α-reductase as compared with finasteride: approximately 3 times
Type I 5α-reductase
  potency at inhibiting the type I isoform as compared with finasteride: more than 100 times
ethanol
  solubility in ethanol: soluble
methanol
  solubility in methanol: soluble
Polyethylene glycol 400
  solubility in polyethylene glycol 400: soluble
water
  solubility in water: insoluble
[1]
  Absolute bioavailability: about 60%
[1]; range in brackets
  Absolute bioavailability, range: 40%-94%
